pIC50: −log10 of the molar value.
What was measured:
[1] = Ubiquitin-Rhodamine 110 Assay for USP25 Activity, Example A-3; type: biochemical; conditions: Ubiquitin-Rhodamine 110 biochemical assay, Example A-1(b); read-out: USP28 A-1(b) IC50 range
Summary of the method: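 USP25-His6 ([…] final as stated) preincubated 30 min with compound (10-point, 25 μM to 1.3 nM), then Ub-Rh110 at 25 nM (<<Km) added in pH 8.0 Tris buffer with BME, BGG and Triton X-100. Reaction stopped after 45 min at room temperature with 10 mM citric acid; fluorescence read at 485/535 nm.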

[2] = target: T1, USP28 (His-tagged USP28-FL-mammalian) (Homo sapiens, UniProt Q96RU2); assay: Ubiquitin-Rhodamine 110 Assay for USP28 Activity, Example A-1(a); type: biochemical; conditions: Ubiquitin-Rhodamine 110 biochemical assay, read-out: USP28 A-1(a) IC50 range
T1 construct: Expression of USP28 (1-1077)-TEV-6*His (pTT5 vector) was carried out in Expi293f cells; made in house; host or cells: Expi293F cells (pTT5 vector)
T1 sequence (Q96RU2 1-1077): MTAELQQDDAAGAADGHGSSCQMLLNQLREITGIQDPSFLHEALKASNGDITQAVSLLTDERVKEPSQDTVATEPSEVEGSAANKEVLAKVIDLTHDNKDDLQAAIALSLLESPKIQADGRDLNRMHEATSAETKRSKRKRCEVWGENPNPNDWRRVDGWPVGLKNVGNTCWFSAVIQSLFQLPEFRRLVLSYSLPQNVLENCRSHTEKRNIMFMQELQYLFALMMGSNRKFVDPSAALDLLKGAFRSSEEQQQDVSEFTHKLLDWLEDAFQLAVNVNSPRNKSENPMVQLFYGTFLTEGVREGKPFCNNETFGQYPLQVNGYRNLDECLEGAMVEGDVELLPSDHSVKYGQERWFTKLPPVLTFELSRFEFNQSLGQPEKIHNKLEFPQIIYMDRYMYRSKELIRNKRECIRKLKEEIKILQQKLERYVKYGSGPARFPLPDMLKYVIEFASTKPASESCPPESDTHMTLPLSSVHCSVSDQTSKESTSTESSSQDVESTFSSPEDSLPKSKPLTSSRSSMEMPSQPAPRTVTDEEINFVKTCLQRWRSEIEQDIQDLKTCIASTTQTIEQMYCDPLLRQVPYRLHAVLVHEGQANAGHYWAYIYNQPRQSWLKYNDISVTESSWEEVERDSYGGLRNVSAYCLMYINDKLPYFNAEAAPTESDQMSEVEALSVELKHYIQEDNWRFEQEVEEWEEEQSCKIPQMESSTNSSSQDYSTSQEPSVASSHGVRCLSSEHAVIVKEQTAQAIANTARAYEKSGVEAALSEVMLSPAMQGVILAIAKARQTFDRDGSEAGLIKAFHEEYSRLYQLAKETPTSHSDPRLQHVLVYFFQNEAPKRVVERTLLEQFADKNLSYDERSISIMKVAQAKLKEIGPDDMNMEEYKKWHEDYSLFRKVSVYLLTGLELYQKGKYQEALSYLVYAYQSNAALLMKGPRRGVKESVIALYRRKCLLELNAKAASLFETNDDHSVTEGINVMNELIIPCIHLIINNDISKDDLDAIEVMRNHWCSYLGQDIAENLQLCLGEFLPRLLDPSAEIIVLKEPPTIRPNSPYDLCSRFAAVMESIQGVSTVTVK
Summary of the method: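 IC50s were fitted with a 4-parameter logistic to percent inhibition relative to no-enzyme and DMSO controls, using Rhodamine 110 fluorescence (485/535 nm) released from 25 nM Ub-Rh110. The enzyme was Expi293F-expressed USP28-FL-His at […], preincubated 30 min with compound (10-point, 25 μM top) in Tris pH 8.0 buffer containing BGG and Triton X-100. Substrate turnover ran 45 min at room temperature and was stopped with 10 mM citric acid.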

[3] = target: T2, USP28 (USP28-5(1-1077)-TEV-6*His; LifeSensors) (Homo sapiens, UniProt Q96RU2); assay: Ubiquitin-Rhodamine 110 Assay for USP28 Activity, Example A-1(b); type: biochemical
T2 construct: construct USP28 (USP28-5(1-1077)-TEV-6*His; LifeSensors); TEV cleavage site (C); 6xHis (C); purchased LifeSensors
T2 sequence (Q96RU2 1-1077): T1 sequence (Q96RU2 1-1077)
Experimental: Example A-1(b): Biochemical Assay: Ubiquitin-Rhodamine 110 Assay for USP28 Activity
Each assay was performed in a final volume of 20 μL in assay buffer containing 20 mM Tris-HCl (pH 8.0, (1M Tris-HCl, pH 8.0 solution; Corning 46-031-CM)), 2 mM CaCl2 (1M Calcium Chloride solution; Sigma #21114) 2 mM BME (2-Mercaptoethanol; Sigma 63689-25ML-F), 0.01% Prionex (0.22 μM filtered, Sigma #G-0411), and 0.01% Triton X-100. Stock compound solutions were stored at −20° C. as 10 mM in DMSO. Up to 1 month prior to the assay, 2 mM test compounds were pre-dispensed into assay plates (Black, low volume; Corning #3820) and frozen at −20° C. Prestamped assay plates were allowed to come to room temperature on the day of the assay. For the screen, 100 nL of 2 mM was pre-dispensed for a final screening concentration of 10 μM (DMSO(fc)=0.5%). […] Plates were incubated stacked for 90 minutes at room temperature before fluorescence was read on the Envision (Excitation at 485 nm and Emission at 535 nm; Perkin Elmer) or on the PheraSTAR (Excitation at 485 nm and Emission at 535 nm; BMG Labtech).
For follow-up studies, each assay was performed in a final volume of 15 μL in assay buffer containing 20 mM Tris-HCl (pH 8.0, (1M Tris-HCl, pH 8.0 solution; Corning 46-031-CM)), 3 mM BME (2-Mercaptoethanol; Sigma 63689-25ML-F), 0.03% BGG (0.22 μM filtered, Sigma, G7516-25G), and 0.01% Triton X-100 (Sigma, T9284-10L). Nanoliter quantities of either an 8-point or 10-point, 3-fold serial dilution in DMSO was pre-dispensed into assay plates (Perkin Elmer, ProxiPlate-384 F Plus, #) for a final test concentration of either 25 μM to 11 nM or 25 μM to 1.3 nM, respectively. Enzyme USP28, construct USP28 (USP28-5(1-1077)-TEV-6*His; LifeSensors) concentration and incubation times were optimized for the maximal signal-to-background while maintaining initial velocity conditions at a fixed substrate concentration. The final concentration of the enzyme in the assay was […]. Final substrate (Ub-Rh110; Ubiquitin-Rhodamine 110, R&D Systems #U-555) concentration was 25 nM with [Ub-Rh110]<<Km. 5 μL of 2× enzyme was added to assay plates (pre-stamped with compound) preincubated with USP28 for 30 minutes and then 5 μL of 2× Ub-Rh110 was added to assay plates. Plates were incubated stacked for 20 minutes at room temperature before 5 μL of stop solution was added (final concentration of 10 mM citric acid (Sigma, 251275-500G)). Fluorescence was read on the Envision (Excitation at 485 nm and Emission at 535 nm; Perkin Elmer) or on the PheraSTAR (Excitation at 485 nm and Emission at 535 nm; BMG Labtech).
For assay formats Example A-1(a), A-1(b), and A-2, data were reported as percent inhibition compared with control wells based on the following equation: % inh=1−((FLU−AveLow)/(AveHigh−AveLow)) where FLU=measured Fluorescence, AveLow=average Fluorescence of no enzyme control (n=16), and AveHighh=average Fluorescence of DMSO control (n=16). IC50 values were determined by curve fitting of the standard 4 parameter logistic fitting algorithm included in the Activity Base software package: IDBS XE Designer Model 205. Data is fitted using the Levenburg Marquardt algorithm.

[4] = tested on: human eosinophil EOL-1 (DSMZ no. ACC 386) cells; assay: In Vivo Xenograft Studies, Example A-2; conditions: EOL-1 cells subcutaneous in flank of mice; first test compound 50-120 mg/kg orally or subcutaneously, second test compound 40 or 60 mg/kg orally twice per day; versus vehicle (FIG. 2)
Experimental: Example A-2: In Vivo Xenograft Studies
Mice were injected subcutaneously in the flank with human eosinophil EOL-1 (DSMZ no. ACC 386) cells (NCI). Injections with cells (circles, FIG. 2A) and with vehicle alone (triangles, FIG. 2B) were monitored, and when tumors reached a critical size (for example, about 1000 mm^3), mice were randomized into treatment groups, including vehicle control and reference standard groups. The groups, as shown in FIG. 2B are as follows: Group 1, vehicle administered orally every other day; Group 2, first test compound ((S)-amino-N-(5-fluoro-7-(piperazin-1-yl)chroman-3-yl)-6-methylthieno[2,3-b]pyridine-2-carboxamide) at 120 mg/kg, administered orally every other day; Group 3, first test compound at 80 mg/kg, administered orally every other day; Group 4, first test compound at 80 mg/kg, administered subcutaneously twice per day, every other day thereafter; Group 5, first test compound at 60 mg/kg, administered subcutaneously twice per day for four consecutive days, with no administration for three days. […] The mice were weighed and tumors measured using vernier calipers on indicated days. Tumor volume was calculated according to the formula (length×width^2)/2.

SMILES	pIC50 [1]	pIC50 [2]	USP28 A-1(b) IC50 range [3]	tumor growth (tumor volume, (length×width^2)/2) [4]
Cc1ccc2c(N)c(C(=O)N[C@H]3CCc4nc(N5CC[C@@H](N)[C@@H]5C(F)F)ccc4C3)sc2n1 [Example 478, 3-amino-N-[(6S)-2-[(2R,3R)-3-amino-2-(difluoromethyl)pyrrolidin-1-yl]-5,6,7,8-tetrahydroquinolin-6-yl]-6-methylthieno[2,3-b]pyridine-2-carboxamide]	< 5.70	6.70 to 7.30		
Cc1ccc2c(N)c(C(=O)N[C@H]3CCc4nc(N5CC[C@H](N)[C@H]5C(F)F)ccc4C3)sc2n1 [Example 479, 3-amino-N-[(6S)-2-[(2S,3S)-3-amino-2-(difluoromethyl)pyrrolidin-1-yl]-5,6,7,8-tetrahydroquinolin-6-yl]-6-methylthieno[2,3-b]pyridine-2-carboxamide]	6.70 to 7.30	7.30 to 9.00		
Cc1nc2sc(C(=O)N[C@H]3CCc4nc(N5C[C@@H](CF)[C@H](N)C5)ccc4C3)c(N)c2cc1F [Example 507, 3-amino-N-[(6S)-2-[(3S,4R)-3-amino-4-(fluoromethyl)pyrrolidin-1-yl]-5,6,7,8-tetrahydroquinolin-6-yl]-5-fluoro-6-methylthieno[2,3-b]pyridine-2-carboxamide]	5.70 to 6.70	6.70 to 7.30		
Cc1ccc2c(N)c(C(=O)N[C@H]3COc4cc(N5C[C@@H]6CNC[C@H]6C5)ccc4C3)sc2n1 [Example 43, 3-amino-N-((R)-7-((3aR,6aR)-hexahydropyrrolo[3,4-c]pyrrol-2(1H)-yi)chroman-3-yl)-6-methylthieno[2,3-b]pyridine-2-carboxamide]			+ (“+”L>2 μM)	
CCn1ccc2cc(C(=O)N[C@@H]3CCc4cc(N5CC6CCC(C5)N6)ccc4C3)nnc21 (single isomer, unassigned) [Example 11-23]			+ (“+”L>2 μM)	
Cc1ccc2c(N)c(C(=O)N[C@@H]3COc4cc(N5CCNCC5)cc(F)c4C3)sc2n1 [first test compound, (S)-amino-N-(5-fluoro-7-(piperazin-1-yl)chroman-3-yl)-6-methylthieno[2,3-b]pyridine-2-carboxamide]				slowing of tumor growth over time
CCn1ccc2cc(C(=O)N[C@H]3CCc4cc(N5CC6CCC(C5)N6)ccc4C3)nnc21 (single isomer, unassigned) [Example 11-24]			+ (“+”L>2 μM)	
CCN[C@H]1CN(c2ccc3c(n2)CC[C@H](NC(=O)c2sc4nc(C)ccc4c2N)C3)C[C@@H]1COC [Example 476, 3-amino-N-[(6S)-2-[(3R,4S)-3-(ethylamino)-4-(methoxymethyl)pyrrolidin-1-yl]-5,6,7,8-tetrahydroquinolin-6-yl]-6-methylthieno[2,3-b]pyridine-2-carboxamide]	< 5.70	6.70 to 7.30		
CO[C@H]1CN(c2ccc3c(n2)CC[C@H](NC(=O)c2sc4nc(C)cnc4c2N)C3)C[C@@H]1N [second test compound, 7-amino-N-[(6S)-2-[(3S,4S)-3-amino-4-methoxypyrrolidin-1-yl]-5,6,7,8-tetrahydroquinolin-6-yl]-3-methylthieno[2,3-b]pyrazine-6-carboxamide]				slowing of tumor growth over time
CCN[C@@H]1CN(c2ccc3c(n2)CC[C@H](NC(=O)c2sc4nc(C)ccc4c2N)C3)C[C@H]1COC [Example 477, 3-amino-N-[(6S)-2-[(3S,4R)-3-(ethylamino)-4-(methoxymethyl)pyrrolidin-1-yl]-5,6,7,8-tetrahydroquinolin-6-yl]-6-methylthieno[2,3-b]pyridine-2-carboxamide]	< 5.70	6.70 to 7.30		
